Test system: DYT-TOR1A MEF EVs
Test: Quantitative LC-MS/MS proteomics of EVs from drug-treated DYT-TOR1A MEF cultures (ritonavir, salubrinal)
Assay type: cell-based, mouse
Settings: 20 μM, 24 h

Compound: O=C(/C=C/c1ccccc1)NC(NC(=S)Nc1cccc2cccnc12)C(Cl)(Cl)Cl (stereo not drawn) [salubrinal]
- DYT disrupted proteins (n=363) with significant corrective effects of salubrinal: 13%
- total EV proteins significantly modified by salubrinal (of 1974 proteins): 9%
- Acaa1a (ACAA1) EV abundance Log2_FC (DYT1+Sal/DYT1): −0.8007
- Ano6 (ANO6) EV abundance Log2_FC (DYT1+Sal/DYT1): −0.3535
- Ap1b1 (AP1B1) EV abundance Log2_FC (DYT1+Sal/DYT1): 0.5874
- Ar18b (ARL8B) EV abundance Log2_FC (DYT1+Sal/DYT1): −0.08283
- Bzw2 (BZW2) EV abundance Log2_FC (DYT1+Sal/DYT1): −0.03057
- Cryab (CRYAB) EV abundance Log2_FC (DYT1+Sal/DYT1): 1.025
- DIst (DLST) EV abundance Log2_FC (DYT1+Sal/DYT1): −0.5172
- Ehd4 (EHD4) EV abundance Log2_FC (DYT1+Sal/DYT1): −0.149
- Flna (FLNA) EV abundance Log2_FC (DYT1+Sal/DYT1): −0.07088
- Fscn1 (FSCN1) EV abundance Log2_FC (DYT1+Sal/DYT1): −0.1414
- Gart (GART) EV abundance Log2_FC (DYT1+Sal/DYT1): 0.05776
- Hist1h1b (H1-5) EV abundance Log2_FC (DYT1+Sal/DYT1): −0.1163
- Hnrnpc (HNRNPC) EV abundance Log2_FC (DYT1+Sal/DYT1): −0.2845
- Ipo9 (IPO9) EV abundance Log2_FC (DYT1+Sal/DYT1): 0.3059
- Jam3 (JAM3) EV abundance Log2_FC (DYT1+Sal/DYT1): −0.6132
- Lipg (LIPG) EV abundance Log2_FC (DYT1+Sal/DYT1): −0.4507
- Lrrc59 (LRRC59) EV abundance Log2_FC (DYT1+Sal/DYT1): −0.4226
- Mapk3 (MAPK3) EV abundance Log2_FC (DYT1+Sal/DYT1): 0.6764
- Mars (MARS1) EV abundance Log2_FC (DYT1+Sal/DYT1): −0.1637
- Mrc2 (MRC2) EV abundance Log2_FC (DYT1+Sal/DYT1): 0.01917
- Myh9 (MYH9) EV abundance Log2_FC (DYT1+Sal/DYT1): −0.2742
- Ndnf (NDNF) EV abundance Log2_FC (DYT1+Sal/DYT1): −0.5746
- Pcmt1 (PCMT1) EV abundance Log2_FC (DYT1+Sal/DYT1): 1.133
- Pi4ka (PI4KA) EV abundance Log2_FC (DYT1+Sal/DYT1): −1.039
- Pitpnb (PITPNB) EV abundance Log2_FC (DYT1+Sal/DYT1): 0.09822
- Prpsap2 (PRPSAP2) EV abundance Log2_FC (DYT1+Sal/DYT1): −0.0814
- Psmc5 (PSMC5) EV abundance Log2_FC (DYT1+Sal/DYT1): 0.4458
- Psmd12 (PSMD12) EV abundance Log2_FC (DYT1+Sal/DYT1): −0.203
- Psme4 (PSME4) EV abundance Log2_FC (DYT1+Sal/DYT1): −0.2099
- Ptma (PTMA) EV abundance Log2_FC (DYT1+Sal/DYT1): 1.235
- Rap2b (RAP2B) EV abundance Log2_FC (DYT1+Sal/DYT1): −0.3288
- Rbm3 (RBM3) EV abundance Log2_FC (DYT1+Sal/DYT1): 0.84
- Rhoa (RHOA) EV abundance Log2_FC (DYT1+Sal/DYT1): 0.2121
- Rpl10 (RPL10) EV abundance Log2_FC (DYT1+Sal/DYT1): −0.05107
- Rpl13a (RPL13A) EV abundance Log2_FC (DYT1+Sal/DYT1): −0.1384
- Rps13 (RPS13) EV abundance Log2_FC (DYT1+Sal/DYT1): 0.02541
- Sec31a (SEC31A) EV abundance Log2_FC (DYT1+Sal/DYT1): 0.1051
- Slc2a1 (SLC2A1) EV abundance Log2_FC (DYT1+Sal/DYT1): 0.1088
- Stom (STOM) EV abundance Log2_FC (DYT1+Sal/DYT1): 0.01864
- Tardbp (TARDBP) EV abundance Log2_FC (DYT1+Sal/DYT1): 0.4388
- Tgfb2 (TGFB2) EV abundance Log2_FC (DYT1+Sal/DYT1): 0.3062
- Tln1 (TLN1) EV abundance Log2_FC (DYT1+Sal/DYT1): −0.1915
- Tln2 (TLN2) EV abundance Log2_FC (DYT1+Sal/DYT1): −0.3236
- Tubb1 (TUBB1) EV abundance Log2_FC (DYT1+Sal/DYT1): −0.6949
- Usp7 (USP7) EV abundance Log2_FC (DYT1+Sal/DYT1): 1.365
- Wdr26 (WDR26) EV abundance Log2_FC (DYT1+Sal/DYT1): −0.03177
- Zyx (ZYX) EV abundance Log2_FC (DYT1+Sal/DYT1): −0.2196
- Acaa1a (ACAA1) EV abundance Log2_FC (DYT1/DYT1+Sal (inverse ratio)): 0.8007
- Ano6 (ANO6) EV abundance Log2_FC (DYT1/DYT1+Sal (inverse ratio)): 0.3535
- Ap1b1 (AP1B1) EV abundance Log2_FC (DYT1/DYT1+Sal (inverse ratio)): −0.5874
- Arl8b (ARL8B) EV abundance Log2_FC (DYT1/DYT1+Sal (inverse ratio)): 0.08283
- Bzw2 (BZW2) EV abundance Log2_FC (DYT1/DYT1+Sal (inverse ratio)): 0.03057
- Cryab (CRYAB) EV abundance Log2_FC (DYT1/DYT1+Sal (inverse ratio)): −1.025
- DIst (DLST) EV abundance Log2_FC (DYT1/DYT1+Sal (inverse ratio)): 0.5172
- Ehd4 (EHD4) EV abundance Log2_FC (DYT1/DYT1+Sal (inverse ratio)): 0.149
- Flna (FLNA) EV abundance Log2_FC (DYT1/DYT1+Sal (inverse ratio)): 0.07088
- Fscn1 (FSCN1) EV abundance Log2_FC (DYT1/DYT1+Sal (inverse ratio)): 0.1414
- Gart (GART) EV abundance Log2_FC (DYT1/DYT1+Sal (inverse ratio)): −0.05776
- Hist1h1b (H1-5) EV abundance Log2_FC (DYT1/DYT1+Sal (inverse ratio)): 0.1163
- Hnrnpc (HNRNPC) EV abundance Log2_FC (DYT1/DYT1+Sal (inverse ratio)): 0.2845
- Ipo9 (IPO9) EV abundance Log2_FC (DYT1/DYT1+Sal (inverse ratio)): −0.3059
- Jam3 (JAM3) EV abundance Log2_FC (DYT1/DYT1+Sal (inverse ratio)): 0.6132
- Lipg (LIPG) EV abundance Log2_FC (DYT1/DYT1+Sal (inverse ratio)): 0.4507
- Lrrc59 (LRRC59) EV abundance Log2_FC (DYT1/DYT1+Sal (inverse ratio)): 0.4226
- Mapk3 (MAPK3) EV abundance Log2_FC (DYT1/DYT1+Sal (inverse ratio)): −0.6764
- Mars (MARS1) EV abundance Log2_FC (DYT1/DYT1+Sal (inverse ratio)): 0.1637
- Mrc2 (MRC2) EV abundance Log2_FC (DYT1/DYT1+Sal (inverse ratio)): −0.01917
- Myh9 (MYH9) EV abundance Log2_FC (DYT1/DYT1+Sal (inverse ratio)): 0.2742
- Ndnf (NDNF) EV abundance Log2_FC (DYT1/DYT1+Sal (inverse ratio)): 0.5746
- Pcmt1 (PCMT1) EV abundance Log2_FC (DYT1/DYT1+Sal (inverse ratio)): −1.133
- Pi4ka (PI4KA) EV abundance Log2_FC (DYT1/DYT1+Sal (inverse ratio)): 1.039
- Pitpnb (PITPNB) EV abundance Log2_FC (DYT1/DYT1+Sal (inverse ratio)): −0.09822
- Prpsap2 (PRPSAP2) EV abundance Log2_FC (DYT1/DYT1+Sal (inverse ratio)): 0.0814
- Psmc5 (PSMC5) EV abundance Log2_FC (DYT1/DYT1+Sal (inverse ratio)): −0.4458
- Psmd12 (PSMD12) EV abundance Log2_FC (DYT1/DYT1+Sal (inverse ratio)): 0.203
- Psme4 (PSME4) EV abundance Log2_FC (DYT1/DYT1+Sal (inverse ratio)): 0.2099
- Ptma (PTMA) EV abundance Log2_FC (DYT1/DYT1+Sal (inverse ratio)): −1.235
- Rap2b (RAP2B) EV abundance Log2_FC (DYT1/DYT1+Sal (inverse ratio)): 0.3288
- Rbm3 (RBM3) EV abundance Log2_FC (DYT1/DYT1+Sal (inverse ratio)): −0.84
- Rhoa (RHOA) EV abundance Log2_FC (DYT1/DYT1+Sal (inverse ratio)): −0.2121
- Rpl10 (RPL10) EV abundance Log2_FC (DYT1/DYT1+Sal (inverse ratio)): 0.05107
- Rpl13a (RPL13A) EV abundance Log2_FC (DYT1/DYT1+Sal (inverse ratio)): 0.1384
- Rps13 (RPS13) EV abundance Log2_FC (DYT1/DYT1+Sal (inverse ratio)): −0.02541
- Sec31a (SEC31A) EV abundance Log2_FC (DYT1/DYT1+Sal (inverse ratio)): −0.1051
- Slc2a1 (SLC2A1) EV abundance Log2_FC (DYT1/DYT1+Sal (inverse ratio)): −0.1088
- Stom (STOM) EV abundance Log2_FC (DYT1/DYT1+Sal (inverse ratio)): −0.01864
- Tardbp (TARDBP) EV abundance Log2_FC (DYT1/DYT1+Sal (inverse ratio)): −0.4388
- Tgfb2 (TGFB2) EV abundance Log2_FC (DYT1/DYT1+Sal (inverse ratio)): −0.3062
- Tln1 (TLN1) EV abundance Log2_FC (DYT1/DYT1+Sal (inverse ratio)): 0.1915
- Tln2 (TLN2) EV abundance Log2_FC (DYT1/DYT1+Sal (inverse ratio)): 0.3236
- Tubb1 (TUBB1) EV abundance Log2_FC (DYT1/DYT1+Sal (inverse ratio)): 0.6949
- Usp7 (USP7) EV abundance Log2_FC (DYT1/DYT1+Sal (inverse ratio)): −1.365
- Wdr26 (WDR26) EV abundance Log2_FC (DYT1/DYT1+Sal (inverse ratio)): 0.03177
- Zyx (ZYX) EV abundance Log2_FC (DYT1/DYT1+Sal (inverse ratio)): 0.2196

— patent publication US20260266848A1, “COMPOSITIONS AND METHODS FOR DIAGNOSING AND TREATING DYSTONIA” (Duke University, priority 2023, published 2026)
